# Measured values from patent US4349551A, “Penicillin derivatives and compositions containing them” (Beecham Group Limited, priority 1980, dated 1982).
# Where two headings read alike, the source gives them in different places.
# Tests used:
# E. cloacae N1 = assay: MIC against E. cloacae N1; type: cell-based; conditions: Enterobacter cloacae, Agar
# From the text: (§1) | MIC values (μg/ml) of the compounds of | Examples 1 and 2 against a number of | organisms important in human infections | Organism Agar Broth Agar Broth Agar
# P. rettgeri = assay: MIC against P. rettgeri; type: cell-based; conditions: Providencia rettgeri, Agar
# From the text: as §1
# B. subtilis = assay: MIC against B. subtilis; type: cell-based; conditions: Bacillus subtilis, Agar
# From the text: as §1
# S. marcescens US 32 = assay: MIC against S. marcescens US 32; type: cell-based; conditions: Serratia marcescens, US32, Agar
# From the text: as §1
# S. aureus Russell = assay: MIC against S. aureus Russell; type: cell-based; conditions: Staphylococcus aureus, Agar
# From the text: as §1
# P. mirabilis C 977 = assay: MIC against P. mirabilis C 977; type: cell-based; conditions: Proteus mirabilis, C977, Agar
# From the text: as §1
# S. pyogenes ON 10 = assay: MIC against S. pyogenes ON 10; type: cell-based; conditions: Streptococcus pyogenes, ON10, Agar
# From the text: as §1
# E. coli JT 4 = assay: MIC against E. coli JT 4; type: cell-based; conditions: Escherichia coli, JT4, Agar
# From the text: as §1
# P. mirabilis 889 = assay: MIC against P. mirabilis 889; type: cell-based; conditions: Proteus mirabilis, Agar
# From the text: as §1
# P. morganii = assay: MIC against P. morganii; type: cell-based; conditions: Morganella morganii, Agar
# From the text: as §1
# [1] = system: Ps. aeruginosa NCTC 10662; assay: MIC against Ps. aeruginosa NCTC 10662; type: cell-based; conditions: Agar
# From the text: as §1
# E. coli NCTC 10413 = assay: MIC against E. coli NCTC 10413; type: cell-based; conditions: Escherichia coli
# From the text: as §1
# S. aureus Oxford = assay: MIC against S. aureus Oxford; type: cell-based; conditions: Staphylococcus aureus, Agar
# From the text: as §1
# K. aerogenes A = assay: MIC against K. aerogenes A; type: cell-based; conditions: Klebsiella aerogenes
# From the text: as §1
# E. coli JT 425 = assay: MIC against E. coli JT 425; type: cell-based; conditions: Escherichia coli, JT425, Agar
# From the text: as §1
# S. faecalis I = assay: MIC against S. faecalis I; type: cell-based; conditions: Enterococcus faecalis, Agar
# From the text: as §1
# N. catarrhalis 1502 = assay: MIC against N. catarrhalis 1502; type: cell-based; conditions: Agar
# From the text: as §1
# Ps. aeruginosa Dalgleish = assay: MIC against Ps. aeruginosa Dalgleish; type: cell-based; conditions: Pseudomonas aeruginosa; Agar; Ps. aeruginosa Dalgleish 10^-2
# From the text: as §1
# [2] = reconversion of the formyl ester to the parent 6-hydroxymethyl penicillin; type: physicochemical
# Method: The benzyl ester from the previous example (101 mg, 0.15 mmol) in THF (5 ml) was added to prehydrogenated 10% palladium on charcoal (100 mg) in THF (5 ml), water (1 ml). After shaking with hydrogen for 0.5 hours, the catalyst was filtered from the solution and washed well with N sodium bicarbonate solution (40 ml). The filtrate was washed with ethyl acetate (2×40 ml), acidified to pH 1.5 with 1 N-hydrochloric acid and extracted with ethyl acetate (3×40 ml). The combined extracts were washed with brine, dried and evaporated to give the title compound (46 mg, 51%), δ [(CD3)2 CO] 1.12, 1.35 (6H, 2s, 2 x CH3) 1.20 (3H, t, NCH2 CH3), 3.3-3.8 (4H, m, NCH2 and piperazine CH2), 3.8-4.3 (4H, m, CH2 O and piperazine CH2), 4.70 (1H, s, C3-proton), 5.57 (1H, s, C5 -proton), 5.72 (1H, d, J 6 Hz, α-proton) 7.45 (5H, m, aromatic protons), 8.25 (1H, s, CHO), 8.48 ( 1H, s, NH), 10.08 (1H, d, J 6 Hz, NH).
# [3] = Ps. aeruginosa NCTC 10662 10^-2
# [4] = Pseudomonas aeruginosa, NCTC10662, Ps. aeruginosa NCTC 10662, read-out: MIC
MIC (E. cloacae N1),MIC (P. rettgeri),MIC (B. subtilis),MIC (S. marcescens US 32),MIC (S. aureus Russell),MIC (P. mirabilis C 977),MIC (S. pyogenes ON 10),MIC (E. coli JT 4),MIC (P. mirabilis 889),MIC (P. morganii),"MIC [1, 3]","MIC [1, 4]","MIC (E. coli NCTC 10413; NCTC10413, Agar)",MIC (S. aureus Oxford),MIC (K. aerogenes A; Agar),MIC (E. coli JT 425),MIC (S. faecalis I),MIC (N. catarrhalis 1502),MIC (Ps. aeruginosa Dalgleish),"MIC (E. coli NCTC 10413; NCTC10413, Broth)",SMILES,other results
25 µg/mL,25 µg/mL,> 100 µg/mL,50 µg/mL,> 100 µg/mL,10 µg/mL,> 100 µg/mL,> 100 µg/mL,10 µg/mL,10 µg/mL,> 100 µg/mL,> 100 µg/mL,10 µg/mL,> 100 µg/mL,1 µg/mL,100 µg/mL,100 µg/mL,–,–,–,"CCN1CCN(C(=O)NC(C(=O)N[C@]2(CO)C(=O)N3[C@@H](C(=O)O)C(C)(C)S[C@@H]32)c2csc(N)n2)C(=O)C1=O (mixture of isomers) [Example 3, 6,α-Hydroxymethyl-6,β-[DL-α'-(4-ethyl-2,3-dioxopiperazine-1-carbonylamino)2-aminothiazole-4-acetamido]penicillanic acid]",–
25 µg/mL,50 µg/mL,> 100 µg/mL,50 µg/mL,> 100 µg/mL,10 µg/mL,25 µg/mL,100 µg/mL,5 µg/mL,25 µg/mL,> 100 µg/mL,> 100 µg/mL,25 µg/mL,> 100 µg/mL,5 µg/mL,50 µg/mL,> 100 µg/mL,1 µg/mL,> 100 µg/mL,10 µg/mL,"CCN1CCN(C(=O)N[C@@H](C(=O)N[C@]2(CO)C(=O)N3[C@@H](C(=O)O)C(C)(C)S[C@@H]32)c2ccccc2)C(=O)C1=O [Example 1, 6,α-Hydroxymethyl-6,β-[D,α'-(4-ethyl-2,3-dioxopiperazine-1-carbonylamino)-phenylacetamido]penicillanic acid]",MIC (K. aerogenes A; Broth): 100 µg/mL
–,–,–,–,–,–,–,–,–,–,–,–,–,–,–,–,–,–,–,–,"CCN1CCN(C(=O)N[C@@H](C(=O)N[C@]2(COC=O)C(=O)N3[C@@H](C(=O)O)C(C)(C)S[C@@H]32)c2ccccc2)C(=O)C1=O [Example 4, 6,α-Formyloxymethyl-6,β-[D,α'-(4-ethyl-2,3-dioxopiperazine-1-carbonylamino)-phenylacetamido]penicillanic acid]",reconversion to the 6-hydroxymethyl compound ([2]; in the solvents used for h.p.l.c.): complete and instantaneous; parent 6-hydroxymethyl penicillin formed on preparation of the sodium salt ([2]; precipitation from acetone using 2 N sodium ethyl hexanoate in methyl isobutyl ketone): an appreciable amount
5 µg/mL,5 µg/mL,> 100 µg/mL,5 µg/mL,> 100 µg/mL,2.5 µg/mL,2.5 µg/mL,100 µg/mL,2.5 µg/mL,5 µg/mL,> 100 µg/mL,> 100 µg/mL,5 µg/mL,> 100 µg/mL,2.5 µg/mL,50 µg/mL,> 100 µg/mL,1 µg/mL,> 100 µg/mL,5 µg/mL,"CCN1CCN(C(=O)N[C@@H](C(=O)N[C@]2(CO)C(=O)N3[C@@H](C(=O)O)C(C)(C)S[C@@H]32)c2ccc(O)cc2)C(=O)C1=O [Example 2, 6,α-Hydroxymethyl-6,β-[D,α'-(4-ethyl-2,3-dioxopiperazine-1-carbonylamino)-p-hydroxyphenylacetamido]penicillanic acid]",MIC (K. aerogenes A; Broth): 1 µg/mL
